PubChem BioAssay AID2060897 (Molecular Pharmacology Branch, DTP, NCI, 2025)

Test system: 966289-007-R4-J1-PDC complex spheroid viability
Assay: Anticancer human tumor 966289-007-R4-J1-PDC patient-derived pancreatic adenocarcinoma cell line growth inhibition [RAS]
Details: for IC50: curve of first compound; for viability, T/C: stronger effect = lower value
Source text: RAS pathway inhibitors in Combinations in Complex Spheroids
A high-throughput screen of multi-cell type tumor spheroids was designed to identify active combinations of RAS pathway inhibitors and targeted small molecules. Complex spheroids include a stromal component modeled by human endothelial cells (HUVEC) and fibroblasts modeled by human mesenchymal stem cells (MSCs). The concentration ranges selected for each drug and investigational agent were based upon clinically achievable concentrations if the clinical Cmax of the agent was known.
Compounds. The drugs and investigational agents: abemaciclib (NSC768073), cobimetinib (NSC768068), divarasib (GDC6063, NSC841802), docetaxel (NSC628503), GDC-1971 (RLY-1971, NSC841576), gemcitabine (NSC613327), inavolisib (NSC800729), ipatasertib (NSC767898), KB-0742 (NSC834161), MRTX-1133 (NSC836407), osimertinib (NSC779217), RMC-4630 (NSC839698), RMC-6236 (NSC851965), RMC-6291 (NSC852671), Ro-3306 (NSC812927), sapanisertib (NSC764658), SN-38 (NSC673596), staurosporine (NSC755774), SY5609 (NSC837396), and tovorafenib (DAY101, NSC766906), were obtained from the National Cancer Institute (NCI) Developmental Therapeutics Program Chemical Repository. The FDA-approved anticancer drug set is available from the NCI Developmental Therapeutics Program. […] The stock solutions were prepared in dimethyl sulfoxide (DMSO, Sigma-Aldrich, St. Louis, MO, cat. D2650) at 800-fold the tested concentration and stored at -70 degrees C prior to their use. All drugs and investigational agents were tested over a range starting from a high concentration at or near the clinical Cmax and decreasing in half-log increments. If the clinical Cmax for an agent had not been determined, the highest concentration tested was 10 microM.
Cell Culture. All cells were maintained in an incubator at 37 degrees C and 5% CO2 with 95% humidity. The PDC lines were cultured according to standard operating procedures established by the NCI PDMR. All PDCs were thawed and cultured in Matrigel-coated flasks prepared with a working solution of 1X Ham's F-12 nutrient mix, without supplementation (Invitrogen, Waltham, MA, cat. 11765054), 100 U/mL penicillin-streptomycin (Invitrogen, cat. 15140122), and 2.5% Matrigel (Corning Inc., Corning, NY, cat. 354248) for the first three passages. The 362531-283-R-J2-PDC and 782815-120-R-J1-PDC lines were cultured in 6C/Colon 1B media, which includes advanced DMEM/F-12 (Thermo Fisher Scientific, cat. 12634028), 10 mM HEPES (Thermo Fisher Scientific, cat. 15630080), 1X GlutaMAX supplement (Thermo Fisher Scientific, cat. 35050061), 0.1 mg/mL primocin (InvivoGen, San Diego, CA, cat. ant-pm-2), 10% defined fetal bovine serum, heat inactivated (HyClone Laboratories Inc., Logan, UT, cat. SH30070.03HI), 50% L-WRN conditioned media (ATCC, cat. CRL-3276), 1.25 mM N-Acetyl-L-cysteine (Sigma-Aldrich, cat. A9165), 10 mM nicotinamide (Sigma-Aldrich, cat. N0636), 1X B-27 supplement (Thermo Fisher Scientific, cat. 17504044), 1X N-2 supplement (Thermo Fisher Scientific, cat. 17502048), 50 ng/mL human EGF (Thermo Fisher Scientific, cat. PHG0311), and 10 microM Y-27632 dihydrochloride (Tocris Bioscience, cat. 1254). The K12877-001-R-J1-PDC line was cultured in 6I media, which includes all 6C/Colon 1B media plus 10 ng/mL human FGF-10 (PeproTech, cat. 100-26), 1 ng/mL human FGF-2 (PeproTech, cat. 100-18B), 1 µM prostaglandin E2 (Tocris Bioscience, cat. 2296), […] hydrocortisone (Sigma-Aldrich, cat. H4001), and […] bovine insulin (Sigma-Aldrich, cat. I6634). The K86415-001-R-J1-PDC line was cultured in 6D media, which includes all 6C/Colon 1B media components minus the L-WRN conditioned media. The 485176-168-R4-J1-PDC was cultured in PANC media, which includes all 6C/Colon 1B media plus 100 ng/mL human FGF-10 (PeproTech, cat. 100-26), 500 nM SB-431542 (Selleckchem, cat. S1067), and 10 nM gastrin (Tocris Bioscience, cat. 3006). […]
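Note: spheroids exposed to agents for one week before readout.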
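Throughout, for viability, T/C: percent viability relative to DMSO vehicle control wells as 100%.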

Question: What does the source list for `C[C@@H](NC(=O)c1ncnc(N)c1Cl)c1ncc(C(=O)Nc2cc(C(F)(F)F)c(Cl)cn2)s1` + C=CC(=O)N1CCN(c2nc(OCC3CCCN3C)nc3c(F)c(-c4nc(N)cc(C)c4C(F)(F)F)c(Cl)cc23)C(C)C1?
Answer: IC50 (second compound 0.00316 µM): > 10 µM; IC50 (second compound 0.01 µM): > 10 µM; IC50 (second compound 0.0316 µM): > 10 µM; IC50 (second compound 0.1 µM): > 10 µM; IC50 (second compound 0.316 µM): > 10 µM; IC50 (second compound 1 µM): > 10 µM; viability, T/C (second compound 0.00316 µM, first compound 0.0316 µM): 123%; viability, T/C (second compound 0.00316 µM, first compound 0.1 µM): 117%; viability, T/C (second compound 0.00316 µM, first compound 0.316 µM): 115%; viability, T/C (second compound 0.00316 µM, first compound 1 µM): 119%; viability, T/C (second compound 0.00316 µM, first compound 3.16 µM): 128%; viability, T/C (second compound 0.00316 µM, first compound 10 µM): 76.2%; viability, T/C (second compound 0.01 µM, first compound 0.0316 µM): 112%; viability, T/C (second compound 0.01 µM, first compound 0.1 µM): 116%; viability, T/C (second compound 0.01 µM, first compound 0.316 µM): 122%; viability, T/C (second compound 0.01 µM, first compound 1 µM): 109%; viability, T/C (second compound 0.01 µM, first compound 3.16 µM): 119%; viability, T/C (second compound 0.01 µM, first compound 10 µM): 100%; viability, T/C (second compound 0.0316 µM, first compound 0.0316 µM): 120%; viability, T/C (second compound 0.0316 µM, first compound 0.1 µM): 113%; viability, T/C (second compound 0.0316 µM, first compound 0.316 µM): 118%; viability, T/C (second compound 0.0316 µM, first compound 1 µM): 128%; viability, T/C (second compound 0.0316 µM, first compound 3.16 µM): 127%; viability, T/C (second compound 0.0316 µM, first compound 10 µM): 86.2%; viability, T/C (second compound 0.1 µM, first compound 0.0316 µM): 116%; viability, T/C (second compound 0.1 µM, first compound 0.1 µM): 119%; viability, T/C (second compound 0.1 µM, first compound 0.316 µM): 123%; viability, T/C (second compound 0.1 µM, first compound 1 µM): 123%; viability, T/C (second compound 0.1 µM, first compound 3.16 µM): 116%; viability, T/C (second compound 0.1 µM, first compound 10 µM): 111%; viability, T/C (second compound 0.316 µM, first compound 0.0316 µM): 115%; viability, T/C (second compound 0.316 µM, first compound 0.1 µM): 107%; viability, T/C (second compound 0.316 µM, first compound 0.316 µM): 130%; viability, T/C (second compound 0.316 µM, first compound 1 µM): 125%; viability, T/C (second compound 0.316 µM, first compound 3.16 µM): 116%; viability, T/C (second compound 0.316 µM, first compound 10 µM): 118%; viability, T/C (second compound 1 µM, first compound 0.0316 µM): 101%; viability, T/C (second compound 1 µM, first compound 0.1 µM): 103%; viability, T/C (second compound 1 µM, first compound 0.316 µM): 120%; viability, T/C (second compound 1 µM, first compound 1 µM): 128%; viability, T/C (second compound 1 µM, first compound 3.16 µM): 134%; viability, T/C (second compound 1 µM, first compound 10 µM): 94.1%
